Measurements taken from US20210330611A1, “THERAPY FOR NEUROLOGICAL DISEASES/DISORDERS” (priority 2020, published 2021).
Structures can show the parent of a compound that is named as a salt. Where two headings read alike, the source gives them in different places.

Tests used:
[1] = system: fibrin-induced microglia activation; assay: Image-based assay of fibrin-induced microglia activation (HTS and dose response); type: cell-based, rat; conditions: for IC50 / inhibition at 10 µM: Rattus norvegicus, Microglia; for inhibition at 10 µM: read-out: Fibrin % inhibition
[2] = system: LPS-induced microglia activation; assay: Image-based assay of LPS-induced microglia activation (HTS and dose response); type: cell-based, rat; conditions: Rattus norvegicus, Microglia; for inhibition at 10 µM: read-out: LPS % inhibition
[3] = system: fibrin- and LPS-induced microglia activation; assay: cells; type: cell-based, rat; conditions: for inhibition at 10 µM: Rattus norvegicus; for Activity: Table 7, fib = fibrin, LPS, tox = toxicity
[4] = system: primary rat microglia; conditions: rat
[5] = system: primary rat microglia; conditions: rat; remark: listed apart in the source
[6] = in vitro; conditions: rat, Cell Toxicity IC50 (uM) [cFib assay]
[7] = in vitro; conditions: rat
[8] = read-out: Fibrin IC50 (uM) (Suppl. Table 7)
[9] = read-out: LPS IC50 (uM) (Suppl. Table 7)
[10] = Microglia, read-out: Cherry-picked Hit (Suppl. Table 7)
[11] = 48 h, Table 1, dose response 0.001-20 μM, triplicates, primary rat microglia, 48 h, read-out: Fibrin IC50
[12] = dose response, fibrin-induced microglia activation, read-out: Fibrin IC50
[13] = fibrin-induced microglia activation, dose response, read-out: Fibrin IC50 (uM) (Suppl. Table 7)
[14] = primary microglia HTS, fibrin stimulation, increased cell size (>800 μm^2) as marker of activation
[15] = 48 h, Table 1, dose response 0.001-20 μM, triplicates, primary rat microglia, 48 h, read-out: LPS IC50
[16] = 48 h, primary microglia HTS, LPS stimulation, increased cell size (>800 μm^2) as marker of activation
[17] = LPS-induced microglia activation, dose response, read-out: LPS IC50 (uM) (Suppl. Table 7)
[18] = dose response, LPS-induced microglia activation, read-out: LPS IC50
[19] = HTS of 1907 compounds, quadrant by fibrin and LPS inhibition
[20] = Microglia, HTS hit classification, read-out: Hit
[21] = hit classification in microglia HTS, read-out: Cherry-picked Hit (Suppl. Table 7)
[22] = quadrant by fibrin and LPS inhibition in HTS of 1907 compounds
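Throughout, for Fibrin % cell toxicity: share of dead cells sized under 150 µm2 at 10 µM in fibrin-stimulated microglia HTS.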

| Structure (SMILES) | inhibition at 10 µM [1] [%] | inhibition at 10 µM ([2]; 48 h) [%] | Quadrant (FIG. 5b) [3] | inhibition at 10 µM [3, 10] [%] | inhibition at 10 µM ([3]; Microglia, read-out: Hit) [%] | Fibrin % cell toxicity [4] [%] | LPS % cell toxicity [5] [%] | IC50 [6] [µM] | IC50 [7] [µM] | IC50 [1, 11] [µM] | IC50 [1, 12] [µM] | IC50 [1, 13] [µM] | inhibition at 10 µM [1, 14] [%] | IC50 [2, 15] [µM] | inhibition at 10 µM [2, 16] [%] | IC50 [2, 17] [µM] | IC50 [2, 18] [µM] | Quadrant (FIG. 5b) [3, 19] | inhibition at 10 µM [3, 20] [%] | Quadrant (FIG. 5b) ([3]; Table 1, screen at 10 μM) | further results |
| --- | --- | --- | --- | --- | --- | --- | --- | --- | --- | --- | --- | --- | --- | --- | --- | --- | --- | --- | --- | --- | --- |
| CNCCC=C1c2ccccc2CCc2ccccc21 [Nortriptyline hydrochloride, reference compound] | 98 | 114 | Q2 | > 50 | > 50 | 2 | 81 | 20 | 10 |  |  |  |  |  |  |  |  |  |  |  | IC50 ([1]; 48 h, read-out: Fibrin IC50): 13 µM; IC50 ([1]; read-out: Fibrin IC50 (uM)): 13 µM; IC50 [1, 8]: 13 µM; IC50 ([2]; 48 h, read-out: LPS IC50): 3 µM; IC50 ([2]; read-out: LPS IC50 (uM)): 3 µM; IC50 [2, 9]: 3 µM |
| COc1ccc(O)cc1 [Mequinol, reference compound] | 98 | 76 | Q2 | > 50 | > 50 | 2 | 1 | > 20 | > 20 |  |  |  |  |  |  |  |  |  |  |  | IC50 ([1]; 48 h, read-out: Fibrin IC50): > 20 µM; IC50 ([1]; read-out: Fibrin IC50 (uM)): > 20 µM; IC50 [1, 8]: > 20 µM; IC50 ([2]; 48 h, read-out: LPS IC50): > 20 µM; IC50 ([2]; read-out: LPS IC50 (uM)): > 20 µM; IC50 [2, 9]: > 20 µM |
| Clc1ccc2c(c1)C(N1CCNCC1)=Nc1ccccc1O2 [Amoxapine, reference compound] | 58 | 43 | Q3 | > 50 | > 50 | 0 | 1 | > 20 | > 20 |  |  |  |  |  |  |  |  |  |  |  |  |
| COc1ccc(OC)c(C(O)CNC(=O)CN)c1 (centres unmarked) [Midodrine hydrochloride, reference compound] | 95 | 52 | Q2 | > 50 | > 50 | 3 | 1 | > 20 | > 20 |  |  |  |  |  |  |  |  |  |  |  | IC50 ([1]; 48 h, read-out: Fibrin IC50): > 20 µM; IC50 ([1]; read-out: Fibrin IC50 (uM)): > 20 µM; IC50 [1, 8]: > 20 µM; IC50 ([2]; 48 h, read-out: LPS IC50): > 20 µM; IC50 ([2]; read-out: LPS IC50 (uM)): > 20 µM; IC50 [2, 9]: > 20 µM |
| CCCSc1ccc2nc(NC(=O)OC)[nH]c2c1 [Albendazole, reference compound] | 64 | 16 | Q3 | > 50 | > 50 | 1 | 1 | > 20 | > 20 |  |  |  |  |  |  |  |  |  |  |  | Fibrin Selectivity [1]: 2; Fibrin Selectivity (LOG10) [1]: 0.22; IC50 ([1]; 48 h, read-out: Fibrin IC50): 4 µM; IC50 ([1]; read-out: Fibrin IC50 (uM)): 4 µM; IC50 [1, 8]: 4 µM; IC50 ([2]; 48 h, read-out: LPS IC50): 6 µM; IC50 ([2]; read-out: LPS IC50 (uM)): 6 µM; IC50 [2, 9]: 6 µM |
| O=C1NC(=O)C(c2ccccc2)(c2ccccc2)N1 [Phenytoin sodium, reference compound] |  |  |  |  |  | 1 | 1 |  | > 20 | > 20 | > 20 | > 20 | 82 | > 20 | 63 | > 20 | > 20 | Q2 | > 50 | Q2 | inhibition at 10 µM [3, 21]: > 50%; Quadrant (FIG. 5b) [3, 22]: Q2; IC50 ([6]; cFib assay): > 20 µM |
| COc1cc([C@@H]2c3cc4c(cc3[C@@H](O[C@@H]3O[C@@H]5CO[C@@H](c6cccs6)O[C@H]5[C@H](O)[C@H]3O)[C@H]3COC(=O)[C@H]23)OCO4)cc(OC)c1O [Teniposide, reference compound] |  |  |  |  |  | 2 | 18 |  | 4 | 2 | 2 | 2 | 91 | 1 | 100 | 1 | 1 | Q2 | > 50 | Q2 | IC50 ([1]; Table 7, read-out: fib_IC50): 0.821 µM; IC50 ([2]; Table 7, read-out: LPS_IC50): 0.24 µM; inhibition at 10 µM [3, 21]: > 50%; Quadrant (FIG. 5b) ([3]; Table 2, screen at 10 μM): Q2; Activity [3]: fib/LPS; Quadrant (FIG. 5b) [3, 22]: Q2; IC50 ([6]; cFib assay): 20 µM |
| CN1CCN(CCCN2c3ccccc3Sc3ccc(C(F)(F)F)cc32)CC1 [Trifluoperazine dihydrochloride, reference compound] |  |  |  |  |  | 2 | 0 |  | 12 | 12 | 12 | 12 | 69 | 6 | 26 | 6 | 6 | Q3 | > 50 | Q3 | inhibition at 10 µM [3, 21]: > 50%; Quadrant (FIG. 5b) [3, 22]: Q3; IC50 ([6]; cFib assay): > 20 µM |
| CO[C@H]1C[C@@H]2CC[C@@H](C)[C@@](O)(O2)C(=O)C(=O)N2CCCC[C@H]2C(=O)O[C@H]([C@H](C)C[C@@H]2CC[C@@H](O)[C@H](OC)C2)CC(=O)[C@H](C)/C=C(\C)[C@@H](O)[C@@H](OC)C(=O)[C@H](C)C[C@H](C)/C=C/C=C/C=C/1C [Rapamycin, reference compound] |  |  |  |  |  | 3 | 2 |  | > 20 | < 0.001 | < 0.001 | < 0.001 | 86 | < 0.001 | 53 | < 0.001 | < 0.001 | Q2 | > 50 | Q2 | inhibition at 10 µM [3, 21]: > 50%; Quadrant (FIG. 5b) [3, 22]: Q2; IC50 ([6]; cFib assay): > 20 µM |
| Cc1cccc(C(=O)O)c1O [Hydroxytoluic acid, reference compound] |  |  |  |  |  | 1 | 0 | > 20 | > 20 | 20 | 20 | 20 | 69 | > 20 | 33 | > 20 | > 20 | Q3 | > 50 | Q3 | inhibition at 10 µM [3, 21]: > 50%; Quadrant (FIG. 5b) [3, 22]: Q3 |
| CC(=O)OCC(=O)[C@@]1(O)[C@H](OC(C)=O)C[C@H]2[C@@H]3CCC4=CC(=O)C=C[C@]4(C)[C@@]3(F)[C@@H](O)C[C@@]21C [Triamcinolone diacetate, reference compound] |  |  |  |  |  | 2 | 5 | > 20 | > 20 | 0.04 | 0.04 | 0.04 | 110 | 0.8 | 100 | 0.8 | 0.8 | Q2 | > 50 | Q2 | Fibrin Selectivity [1]: 17; Fibrin Selectivity (LOG10) [1]: 1.23; IC50 ([1]; Table 3, read-out: Fibrin IC50 (uM) (Suppl. Table 7)): 0.04 µM; IC50 ([1]; Table 7, read-out: fib_IC50): 0.002 µM; IC50 ([2]; Table 3, read-out: LPS IC50 (uM) (Suppl. Table 7)): 0.8 µM; IC50 ([2]; Table 7, read-out: LPS_IC50): 0.002 µM; inhibition at 10 µM ([3]; Microglia, Table 3, read-out: Cherry-picked Hit (Suppl. Table 7)): > 50%; Quadrant (FIG. 5b) ([3]; Table 2, screen at 10 μM): Q2; Quadrant (FIG. 5b) ([3]; Table 3, screen at 10 μM): Q2; Activity [3]: fib/LPS; Quadrant (FIG. 5b) [3, 22]: Q2 |
| Clc1ccc(COC(Cn2ccnc2)c2ccc(Cl)cc2Cl)c(Cl)c1 (centres unmarked) [Miconazole nitrate, reference compound] | 53 | 23 | Q3 | > 50 | > 50 | 1 | 0 | > 20 | > 20 |  |  |  |  |  |  |  |  |  |  |  |  |
| OCc1cc(C(O)CNCCCCCCOCCCCc2ccccc2)ccc1O (centres unmarked) [Salmeterol, reference compound] | 56 | 29 | Q3 | > 50 | > 50 | 1 | 1 | > 20 | > 20 |  |  |  |  |  |  |  |  |  |  |  | Fibrin Selectivity [1]: 10; Fibrin Selectivity (LOG10) [1]: 1.02; IC50 ([1]; 48 h, read-out: Fibrin IC50): 1 µM; IC50 ([1]; read-out: Fibrin IC50 (uM)): 1 µM; IC50 [1, 8]: 1 µM; IC50 ([2]; 48 h, read-out: LPS IC50): 14 µM; IC50 ([2]; read-out: LPS IC50 (uM)): 14 µM; IC50 [2, 9]: 14 µM |
